Experimental data from paper PMC6135100 (Toxicology, 2017).
Like-named read-outs stand apart in the source and are kept apart here.

Columns and labels:
AR [1] = settings: AR reference compounds; ref Kleinstreuer 2016; cited from earlier work
AR (full receptor) = AR (full receptor) (Homo sapiens, UniProt P10275); assay: qHTS AR-luciferase; format: cell-based; settings: for AR-luc Primary Assay EC50 / AR-luc Primary Assay Efficacy: primary qHTS; for AR-luc Primary Assay EC50: Inactive = efficacy below 30% of R1881's activity; for AR-luc Efficacy / EC50: Table 3, mean ± SD, n=3; for AR-luc Efficacy / AR-luc Primary Assay Efficacy: relative to maximal efficacy of R1881; for EC50: read-out: AR-luc EC50
[2] = biological target: T1, rat AR ligand-binding domain (LBD) fused to the DNA-binding domain of GAL4 (Rattus norvegicus, UniProt P15207); assay: qHTS AR β-lactamase; format: cell-based; settings: for AR-bla Primary Assay EC50: Inactive = efficacy below 30% of R1881's activity
T1 sequence (P15207 651-882 limits assumed): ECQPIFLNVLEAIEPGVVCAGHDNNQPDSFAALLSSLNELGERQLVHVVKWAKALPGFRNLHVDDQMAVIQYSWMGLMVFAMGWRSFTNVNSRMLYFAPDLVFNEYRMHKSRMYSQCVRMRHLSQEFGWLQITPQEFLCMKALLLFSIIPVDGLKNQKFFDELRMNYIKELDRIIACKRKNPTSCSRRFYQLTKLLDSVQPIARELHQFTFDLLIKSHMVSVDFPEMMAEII

AR-LBD = biological target: T2, AR-LBD (Rattus norvegicus, UniProt P15207); assay: Fluorescence polarization AR competition binding assay
T2 sequence (P15207 651-882 limits assumed): T1 sequence (P15207 651-882 limits assumed)

AR [3] = settings: ref Tamaya et al. 1986; cited from earlier work
rabbit = rabbit development study; ref Morinaga et al. 1996b; cited from earlier work
estrogen receptor = estrogen receptor (Homo sapiens, UniProt P03372); assay: Analogous estrogen receptor screens; format: cell-based; settings: data not shown
estrogen receptor, sequence (P03372 whole entry): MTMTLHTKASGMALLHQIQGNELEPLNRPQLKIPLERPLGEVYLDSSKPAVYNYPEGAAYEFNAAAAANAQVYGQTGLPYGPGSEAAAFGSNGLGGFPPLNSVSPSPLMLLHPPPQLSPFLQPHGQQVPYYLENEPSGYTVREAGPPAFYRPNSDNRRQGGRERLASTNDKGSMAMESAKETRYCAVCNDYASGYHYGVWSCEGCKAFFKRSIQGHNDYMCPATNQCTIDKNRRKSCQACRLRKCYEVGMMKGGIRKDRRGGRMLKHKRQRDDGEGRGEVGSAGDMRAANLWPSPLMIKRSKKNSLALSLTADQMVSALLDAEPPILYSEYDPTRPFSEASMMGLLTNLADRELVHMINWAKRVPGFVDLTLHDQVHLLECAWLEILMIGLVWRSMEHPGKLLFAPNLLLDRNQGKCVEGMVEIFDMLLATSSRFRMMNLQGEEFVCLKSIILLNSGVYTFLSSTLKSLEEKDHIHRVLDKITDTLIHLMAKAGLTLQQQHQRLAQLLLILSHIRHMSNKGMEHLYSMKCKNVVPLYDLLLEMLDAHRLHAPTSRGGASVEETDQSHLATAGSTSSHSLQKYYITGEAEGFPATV

AR (full receptor), sequence (P10275 whole entry, the tested form may be a part): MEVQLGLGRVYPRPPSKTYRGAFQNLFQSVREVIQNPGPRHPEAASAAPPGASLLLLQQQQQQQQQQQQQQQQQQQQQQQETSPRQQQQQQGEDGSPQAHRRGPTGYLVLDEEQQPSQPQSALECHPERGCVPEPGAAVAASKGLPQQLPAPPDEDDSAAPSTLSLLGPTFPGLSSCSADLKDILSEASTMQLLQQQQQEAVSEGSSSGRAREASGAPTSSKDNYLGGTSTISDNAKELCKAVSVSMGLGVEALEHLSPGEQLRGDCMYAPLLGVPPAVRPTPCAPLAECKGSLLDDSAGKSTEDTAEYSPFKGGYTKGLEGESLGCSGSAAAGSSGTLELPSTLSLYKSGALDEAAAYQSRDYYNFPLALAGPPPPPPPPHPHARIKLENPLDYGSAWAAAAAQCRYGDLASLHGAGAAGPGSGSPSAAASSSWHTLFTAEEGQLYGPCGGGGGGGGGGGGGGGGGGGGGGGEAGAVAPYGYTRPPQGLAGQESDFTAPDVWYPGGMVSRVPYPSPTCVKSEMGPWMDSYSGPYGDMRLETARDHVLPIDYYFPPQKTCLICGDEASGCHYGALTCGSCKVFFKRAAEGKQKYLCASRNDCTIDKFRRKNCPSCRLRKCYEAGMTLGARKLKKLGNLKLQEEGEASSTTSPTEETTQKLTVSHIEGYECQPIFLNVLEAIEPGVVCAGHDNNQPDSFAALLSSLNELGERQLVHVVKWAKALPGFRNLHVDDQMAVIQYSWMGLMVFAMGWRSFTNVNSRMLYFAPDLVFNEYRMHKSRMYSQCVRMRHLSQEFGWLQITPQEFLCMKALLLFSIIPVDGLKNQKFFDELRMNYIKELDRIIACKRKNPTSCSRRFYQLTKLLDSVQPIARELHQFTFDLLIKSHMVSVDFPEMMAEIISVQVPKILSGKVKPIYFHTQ

Structure (SMILES) | Known AR Activity (AR [1]) | further results
C[C@]12CCC(=O)C=C1CC[C@@H]1[C@@H]2CC[C@]2(C)C(=O)CC[C@@H]12 [4-Androstenedione] | Agonist | –
C[C@]12CCC(=O)C[C@@H]1CC[C@@H]1[C@@H]2CC[C@]2(C)[C@@H](O)CC[C@@H]12 [5α-Dihydrotestosterone] | Agonist | –
CCNc1nc(Cl)nc(NC(C)C)n1 [Atrazine] | Inactive | –
COC(=O)Nc1nc2ccccc2[nH]1 [Carbendazim] | Inactive | AR-luc Primary Assay EC50 (AR (full receptor)): Inactive^b; AR-bla Primary Assay EC50 ([2]; primary qHTS): Inactive^b
CC(=O)O[C@]1(C(C)=O)CC[C@H]2[C@@H]3C=C(Cl)C4=CC(=O)[C@@H]5C[C@@H]5[C@]4(C)[C@H]3CC[C@@]21C [Cyproterone acetate] | Weak Agonist | –
CC1(C)[C@H](C(=O)O[C@H](C#N)c2cccc(Oc3ccccc3)c2)[C@@H]1C=C(Br)Br [Deltamethrin] | Inactive | AR-luc Primary Assay EC50 (AR (full receptor)): Inactive^b; AR-bla Primary Assay EC50 ([2]; primary qHTS): Inactive^b
C[C@]12CC[C@H]3C(=CCc4cc(O)ccc43)[C@@H]1CCC2=O [Equilin] | – | FP Binding Efficacy (AR-LBD): −89.77 ± 13.22%; IC50 (AR-LBD): 21 ± 3.41 µM; AR-luc Efficacy (AR (full receptor)): 89.27 ± 18.86%; EC50 (AR (full receptor)): 6.31 ± 2.03 µM; EC50 [2]: 19.5 µM; AR-bla Efficacy ([2]; Table 3, mean ± SD, n=3, relative to maximal efficacy of R1881): 31.53 ± 3.88%
OC(c1ccc(Cl)cc1)(c1cncnc1)c1ccccc1Cl (stereo not shown) [Fenarimol] | Inactive | –
C[C@]1(O)CC[C@H]2[C@@H]3CCC4=CC(=O)CC[C@]4(C)[C@@]3(F)[C@@H](O)C[C@@]21C [Fluoxymestrone] | Agonist | –
CC(C)C(=O)Nc1ccc([N+](=O)[O-])c(C(F)(F)F)c1 [Flutamide] | Inactive | –
CC1(C)[C@@H](O[C@H]2O[C@H](C(=O)O)[C@@H](O)[C@H](O)[C@H]2O[C@@H]2O[C@H](C(=O)O)[C@@H](O)[C@H](O)[C@H]2O)CC[C@]2(C)[C@H]3C(=O)C=C4[C@@H]5C[C@@](C)(C(=O)O)CC[C@]5(C)CC[C@@]4(C)[C@]3(C)CC[C@@H]12 [Glycyrrhizin] | – | binding to AR, previously identified (AR [3]): weak binder of AR
CC(C)NC(=O)N1CC(=O)N(c2cc(Cl)cc(Cl)c2)C1=O [Iprodione] | Inactive | –
C#C[C@]1(O)CC[C@H]2[C@@H]3CCC4=CC(=O)CC[C@@H]4[C@H]3CC[C@@]21CC [Levonorgestrel] | Agonist | –
CC(=O)O[C@]1(C(C)=O)CC[C@H]2[C@@H]3C[C@H](C)C4=CC(=O)CC[C@]4(C)[C@H]3CC[C@@]21C [Medroxyprogesterone acetate] | Agonist | –
C=C1C[C@H]2[C@@H]3C=C(C)C4=CC(=O)CC[C@]4(C)[C@H]3CC[C@]2(C)[C@@]1(OC(C)=O)C(C)=O [Melengestrol acetate] | – | IC50 (AR-LBD): 1.17 ± 0.2 µM; FP Binding Efficacy (AR-LBD; mean ± SD, n=3, printed as negative values): −124.24 ± 3.58%; AR-luc Efficacy (AR (full receptor)): 288.12 ± 44.83%; EC50 (AR (full receptor)): 0.017 ± 0.012 µM
C[C@]12CCC(=O)C=C1CC[C@@H]1[C@@H]2CC[C@@]2(C)[C@H]1CC[C@]2(C)O [Methyltestosterone] | Agonist | –
C[C@]1(O)CC[C@H]2[C@@H]3CCC4=CC(=O)CCC4=C3C=C[C@@]21C [Methyltrienolone (R1881), Methyltrienolone] | Agonist | AR-bla Primary Assay Efficacy [2]: 0.00131 [131] %
C[C@]12CC[C@H]3[C@@H](CCC4=CC(=O)CC[C@@H]43)[C@@H]1CC[C@@H]2O [Nandrolone] | Agonist | –
CC1(C)NC(=O)N(c2ccc([N+](=O)[O-])c(C(F)(F)F)c2)C1=O [Nilutamide] | Inactive | –
CN1C(=O)CN=C(c2ccccc2)c2cc([N+](=O)[O-])ccc21 [Nimetazepam, nimetazepam] | – | AR-luc Primary Assay Efficacy (AR (full receptor)): 470%
C#C[C@]1(OC(C)=O)CC[C@H]2[C@@H]3CCC4=CC(=O)CC[C@@H]4[C@H]3CC[C@@]21C [Norethindrone acetate] | Agonist | –
C#C[C@]1(O)CC[C@H]2[C@@H]3CCC4=CC(=O)CC[C@@H]4[C@H]3CC[C@@]21C [Norethindrone] | Agonist | –
C#C[C@]1(O)CC[C@H]2[C@@H]3CCC4=C(CCC(=O)C4)[C@H]3CC[C@@]21C [Norethynodrel] | Agonist | –
CCCN(CCOc1c(Cl)cc(Cl)cc1Cl)C(=O)n1ccnc1 [Prochloraz] | Inactive | –
Cc1oc(=O)oc1CN1CCN(c2cc3c(cc2F)c(=O)c(C(=O)O)c2n3C(C)S2)CC1 (stereo not shown) [Prulifloxacin] | – | NOAEL for pregnancy (rabbit): 30 mg/kg; general toxicity NOAEL (rabbit): 10 mg/kg; activity in estrogen receptor screens (estrogen receptor): active
Oc1ccc(/C=C/c2cc(O)cc(O)c2)cc1 [Resveratrol] | Inactive | AR-luc Primary Assay EC50 (AR (full receptor)): Inactive^b; AR-bla Primary Assay EC50 ([2]; primary qHTS): Inactive^b
CC/C(=C(\c1ccccc1)c1ccc(OCCN(C)C)cc1)c1ccccc1 [Tamoxifen] | Inactive | –
C[C@]12CC[C@H]3[C@@H](CCC4=CC(=O)CC[C@@]43C)[C@@H]1CC[C@@H]2O [Testosterone] | Agonist | –
C[C@]12C=CC3=C4CCC(=O)C=C4CCC3C1CC[C@@H]2O (stereo partly shown) [Trenbolone] | Agonist | AR-luc Primary Assay Efficacy (AR (full receptor)): 122%; AR-bla Primary Assay Efficacy ([2]; primary qHTS, relative to maximal efficacy of R1881): 105%
Clc1ccc(C(c2ccc(Cl)cc2)C(Cl)(Cl)Cl)cc1 [p,p’-DDT] | Inactive | –
